Among the data in PubChem BioAssay (NCI) are GI50 and TGI values, retold here.

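Briefly, cells in 96-well plates were exposed to five compound concentrations for 48 h, and endpoints were estimated by linear interpolation. The concentration for 50% growth inhibition is given as GI50. TGI marks complete inhibition of growth.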 A value given as a limit tells only on which side of the number the result lay.

What all share (assay): DTP human tumour cell line panel, 48 h
In assay [1] the test system is HCT-15 colon.
Assay [2] concerns MCF7 breast.
Assay [3] concerns UO-31 renal.
Assay [4] concerns OVCAR-3 ovarian.
Assay [5] concerns SF-295 CNS.
The subject of assay [6] is MDA-MB-435.
Assay [7] deals with IGROV1 ovarian.
Assay [8] has as its system PC-3 prostate.
Assay [9] deals with CCRF-CEM leukemia.
Assay [10] deals with SF-268 CNS.

As usually defined, the GI50 is the concentration that inhibits growth by half. In general, TGI refers to the concentration at which net growth stops. Read a high TGI as lower sensitivity of the cells. As for `O=C1CC(N2C(=O)/C(=C/C(Cl)=C\c3ccc([N+](=O)[O-])cc3)SC2=S)C(=O)N1c1ccc(Cl)cc1` (stereo not given), the GI50 was 0.599 µM in [1]; 1.38 µM in assay [2]; 1.07 µM in assay [3]; 0.721 µM in assay [4]; 1.4 µM in assay [5]; 1.65 µM in assay [6]. The GI50 in assay [7] was 1.03 µM; in [8], 1.34 µM; in [9], 0.486 µM; in [10], 3.07 µM. Besides, the concentration for total growth inhibition (TGI) was 8.2 µM in [1]; greater than 100 µM in assay [2]; 3.3 µM in assay [3]; 2.62 µM in assay [4]; 3.24 µM in assay [5]; 3.39 µM in assay [6]. For the same compound, the concentration for total growth inhibition (TGI) in assay [7] is 3.26 µM; in assay [8], 4.15 µM; in assay [9], 12.4 µM; in [10] it was greater than 100 µM.
For the compound `O=C(NN1C(=O)/C(=C/c2ccc(Cl)cc2)N=C1c1ccccc1)c1c(Cl)c(Cl)c(Cl)c(Cl)c1-c1nc2ccccc2[nH]1`, the TGI in assay [1] was 28.3 µM; in assay [2] it was 60.3 µM; in assay [3] it was greater than 100 µM; in assay [4], greater than 100 µM; in assay [5] it was greater than 100 µM; in assay [6], 11.6 µM. Besides, the TGI in assay [7] was greater than 100 µM; in [8] it was greater than 100 µM; in assay [9], greater than 100 µM; in [10] it was 62.5 µM.
As for `O=c1c2c([nH]c3nccn13)CCCC2`, the total growth inhibition concentration (TGI) in assay [1], in assay [2], in [3], in [4], in assay [5] and in assay [6] was greater than 10 µM each time. Besides, the TGI in assay [7], in assay [8], in [9] and in assay [10] was greater than 10 µM in each case.
Take `C=C1C(C2(C)C=CC(=O)OC3(C)COC(=O)CC32)C(OC=O)C(OC(=O)C(O)C(C)CC)C2(C)C(c3ccoc3)CC(OC(C)=O)C12O` (stereo not given): the TGI in [1], in assay [2], in assay [3], in assay [4], in assay [5] and in [6] was greater than 100 µM throughout. Besides, the TGI in assay [7], in [8], in assay [9] and in [10] was greater than 100 µM in each case.
